# Measurements from paper PMC8318587, “Structure-guided microbial targeting of antistaphylococcal prodrugs” (eLife, 2021).
# Where two headings read alike, the source gives them in different places.
# Key:
# S. aureus Newman [1] = assay: Minimum inhibitory concentration (MIC) in liquid LB media; type: cell-based; conditions: Staphylococcus aureus, NEWMAN
# Procedure: (§1) Antibiotic resistance frequency was determined on LB agar plates containing 4× and 10×, the minimum inhibitory concentrations of several antibiotics. MICs were determined for S. aureus Newman in liquid LB media. […] Briefly, S. aureus Newman was grown in LB media to late log-phase and centrifuged at 4000 × g for 15 min before resuspension at an OD600 nm of 30 (~1E11 CFU/mL) in LB media. One hundred microliter aliquots of concentrated S. aureus was plated in duplicate on selective and non-selective plates and incubated at 37°C. After 24 hr, mutation rates were calculated by counting the number of colonies present and dividing by the total number of colonies plated. Experiments were performed in triplicate.
# GloB = test system: GloB; parameters: method as in Mikati et al., 2020; conditions: ref Mikati et al., 2020; cited from earlier work
# [2] = test system: S. aureus (JE2, NTML transposon mutants, Newman resistant isolates); assay: POM-HEX half-maximal growth inhibitory concentration (IC50), microtiter broth dilution; type: cell-based; conditions: Staphylococcus aureus
# Procedure: Half-maximal inhibitory concentration (IC50) determination was performed using microtiter broth dilution in clear 96-well plates ([European Committee for Antimicrobial Susceptibility Testing (EUCAST) of the ES of CM and ID (ESCMID), 2000]). Briefly, POM-HEX was added to 75 µL LB media at a final concentration of 20–50 µM POM-HEX and 0.5% DMSO, with POM-HEX concentrations varying according to resistant strain. Subsequently, POM-HEX was serially diluted in LB media containing 0.5% DMSO for a total of 10 dilutions. Two wells were left without drug, one used to define 100% growth, and the other used to control for media contamination and to define 0% growth. Seventy-five microliters of mid-log phase S. aureus diluted to 1 × 10^5 colony forming units/mL were subsequently added to the plate. Following inoculation, plates were incubated at 37°C with shaking, and OD600 measurements were taken every 20 min for a total of 16 hr. Half-maximal inhibitory concentrations (IC50) were determined by fitting the OD600 of each condition following 10 hr of growth to a nonlinear regression using GraphPad Prism software. Experiments were performed in triplicate with technical duplicates.
# Generation of POM-HEX resistant strains was performed by plating log-phase S. aureus Newman on LB agar containing 3.33 μM POM-HEX and incubating at 37°C overnight. Surviving single colonies were grown overnight in LB media and frozen in 10% glycerol for long term storage. All assays were performed from fresh overnight inoculations from glycerol stocks.
# S. aureus Newman [3] = type: cell-based, Staphylococcus aureus; conditions: LB agar, 24 hr, mean ± SD
# Procedure: as §1
compound,measurement,setting,value
CC(C)(C)C(=O)OCOP(=O)(OCOC(=O)C(C)(C)C)C1CCCN(O)C1=O (stereo not shown) [POM-HEX],MIC,S. aureus Newman [1],3.13 µg/mL
same,"Prodrug activation product with GloB, in words",GloB,removes only one POM moiety
same,IC50,"[2]; 10 h, read-out: POM-HEX IC50, S. aureus JE2 parental strain, OD600 at 10 hr",1540 nM
same,IC50,"[2]; read-out: POM-HEX IC50, transposon mutant NE64 (hemY, SAUSA300_1781)",1430 nM
same,IC50,"[2]; read-out: POM-HEX IC50, transposon mutant NE145 (uvrA, SAUSA300_0742)",1460 nM
same,IC50,"[2]; read-out: POM-HEX IC50, transposon mutant NE202 (SAUSA300_1902)",700 nM
same,IC50,"[2]; read-out: POM-HEX IC50, transposon mutant NE223 (truA, SAUSA300_2173)",1390 nM
same,IC50,"[2]; read-out: POM-HEX IC50, transposon mutant NE293 (SAUSA300_1285)",1410 nM
same,IC50,"[2]; read-out: POM-HEX IC50, transposon mutant NE355 (gbaA, SAUSA300_2515)",1730 nM
same,IC50,"[2]; read-out: POM-HEX IC50, transposon mutant NE364 (SAUSA300_0671)",1650 nM
same,IC50,"[2]; read-out: POM-HEX IC50, transposon mutant NE377 (GloB, SAUSA300_1505)",10600 nM
same,IC50,"[2]; read-out: POM-HEX IC50, transposon mutant NE386 (rot, SAUSA300_1708)",1400 nM
same,IC50,"[2]; read-out: POM-HEX IC50, transposon mutant NE478 (phnE, SAUSA300_0142)",1610 nM
same,IC50,"[2]; read-out: POM-HEX IC50, transposon mutant NE503 (estA, FrmB, SAUSA300_2564)",6280 nM
same,IC50,"[2]; read-out: POM-HEX IC50, transposon mutant NE520 (proC, SAUSA300_1452)",1470 nM
same,IC50,"[2]; read-out: POM-HEX IC50, transposon mutant NE532 (SAUSA300_2473)",1560 nM
same,IC50,"[2]; read-out: POM-HEX IC50, transposon mutant NE541 (SAUSA300_0201)",1600 nM
same,IC50,"[2]; read-out: POM-HEX IC50, transposon mutant NE621 (SAUSA300_0581)",1620 nM
same,IC50,"[2]; read-out: POM-HEX IC50, transposon mutant NE812 (SAUSA300_0299)",1640 nM
same,IC50,"[2]; read-out: POM-HEX IC50, transposon mutant NE929 (mtlF, SAUSA300_2105)",1700 nM
same,IC50,"[2]; read-out: POM-HEX IC50, transposon mutant NE937 (fruC, SAUSA300_1993)",1670 nM
same,IC50,"[2]; read-out: POM-HEX IC50, transposon mutant NE949 (hsdM2, SAUSA300_1752)",1730 nM
same,IC50,"[2]; read-out: POM-HEX IC50, transposon mutant NE1039 (psuG, SAUSA300_0312)",1730 nM
same,IC50,"[2]; read-out: POM-HEX IC50, transposon mutant NE1071 (capD, SAUSA300_0538)",1540 nM
same,IC50,"[2]; read-out: POM-HEX IC50, transposon mutant NE1118 (dapD, SAUSA300_1290)",1690 nM
same,IC50,"[2]; read-out: POM-HEX IC50, transposon mutant NE1127 (lpl4, SAUSA300_0414)",1720 nM
same,IC50,"[2]; read-out: POM-HEX IC50, transposon mutant NE1173 (SAUSA300_1792)",1840 nM
same,IC50,"[2]; read-out: POM-HEX IC50, transposon mutant NE1225 (SAUSA300_0421)",2150 nM
same,IC50,"[2]; read-out: POM-HEX IC50, transposon mutant NE1238 (SAUSA300_0214)",2080 nM
same,IC50,"[2]; read-out: POM-HEX IC50, transposon mutant NE1283 (tnp, SAUSA300_0028)",2100 nM
same,IC50,"[2]; read-out: POM-HEX IC50, transposon mutant NE1296 (saeS, SAUSA300_0690)",2070 nM
same,IC50,"[2]; read-out: POM-HEX IC50, transposon mutant NE1486 (phoP, SAUSA300_1639)",2180 nM
same,IC50,"[2]; read-out: POM-HEX IC50, transposon mutant NE1505 (SAUSA300_0840)",2200 nM
same,IC50,"[2]; read-out: POM-HEX IC50, transposon mutant NE1519 (accC, SAUSA300_1563)",1750 nM
same,IC50,"[2]; read-out: POM-HEX IC50, transposon mutant NE1547 (SAUSA300_2508)",1480 nM
same,IC50,"[2]; read-out: POM-HEX IC50, transposon mutant NE1610 (pdhD, SAUSA300_0996)",1230 nM
same,IC50,"[2]; read-out: POM-HEX IC50, transposon mutant NE1682 (hlgB, SAUSA300_2367)",1370 nM
same,IC50,"[2]; read-out: POM-HEX IC50, transposon mutant NE1723 (SAUSA300_0094)",1340 nM
same,Mutational frequency at 4× MIC,S. aureus Newman [3],5.96 ± 1.60 E-07
same,Mutational frequency at 10× MIC,S. aureus Newman [3],2.92 ± 0.57 E-07
